The text below walks through data of patent US20160256560A1, “Environmentally Sensitive Compositions” (priority 2010, published 2016).

This data set is described as follows: Solubility / aggregation of pHLIP variants at pH 8.

Take `CC[C@H](C)[C@H](NC(=O)[C@@H]1CCCN1C(=O)[C@H](CC(N)=O)NC(=O)[C@H](CCC(N)=O)NC(=O)[C@H](CCC(=O)O)NC(=O)CNC(=O)CN)C(=O)N[C@@H](Cc1ccc(O)cc1)C(=O)N[C@@H](Cc1c[nH]c2ccccc12)C(=O)N[C@@H](C)C(=O)N[C@@H](CCC(N)=O)C(=O)N[C@@H](Cc1ccc(O)cc1)C(=O)N[C@@H](C)C(=O)N[C@@H](CC(=O)O)C(=O)N[C@@H](Cc1c[nH]c2ccccc12)C(=O)N[C@@H](CC(C)C)C(=O)N[C@@H](Cc1ccccc1)C(=O)N[C@H](C(=O)N[C@H](C(=O)N1CCC[C@H]1C(=O)N[C@@H](CC(C)C)C(=O)N[C@@H](CC(C)C)C(=O)N[C@@H](CC(C)C)C(=O)N[C@@H](CC(C)C)C(=O)N[C@@H](CC(=O)O)C(=O)N[C@@H](CC(C)C)C(=O)N[C@@H](C)C(=O)N[C@@H](CC(C)C)C(=O)N[C@@H](CC(C)C)C(=O)N[C@H](C(=O)N[C@@H](CC(=O)O)C(=O)N[C@@H](C)C(=O)N[C@@H](CC(=O)O)C(=O)N[C@@H](CCC(=O)O)C(=O)NCC(=O)N[C@H](C(=O)N[C@@H](CS)C(=O)NCC(=O)O)[C@@H](C)O)C(C)C)[C@@H](C)O)[C@@H](C)O` [R11Q]: the “Notes: solubility” value was “Has better solubility”.
